pIC50: −log10 of the molar value.
How the values were obtained:
A549 [1] = assay: Antiproliferative activity against human A549 cells incubated for 3 days by MTT assay; type: functional, cell-based; conditions: A549, 72 h
HepG2 [2] = assay: Antiproliferative activity against human HepG2 cells incubated for 3 days by MTT assay; type: functional, cell-based; conditions: HepG2, 72 h
HCT-116 = assay: Antiproliferative activity against human HCT116 cells incubated for 3 days by MTT assay; type: functional, cell-based; conditions: HCT-116, 72 h
HepG2 [3] = assay: Antiproliferative activity against human HepG2 cells incubated for 48 hrs by MTT assay; type: functional, cell-based; conditions: HepG2, 48 h
A549 [4] = assay: Antiproliferative activity against human A549 cells incubated for 48 hrs by MTT assay; type: functional, cell-based; conditions: A549, 48 h
HeLa [5] = assay: Antiproliferative activity against human HeLa cells incubated for 48 hrs by MTT assay; type: functional, cell-based
MCF7 = assay: Antiproliferative activity against human MCF7 cells incubated for 48 hrs by MTT assay; type: functional, cell-based; conditions: MCF7, 48 h
K562 = assay: Cytotoxicity against human K562 cells incubated for 72 hrs by CCK8 assay; type: functional, cell-based; conditions: K562, 72 h
K562/Adr = assay: Cytotoxicity against human K562/ADR cells incubated for 72 hrs by CCK8 assay; type: functional, cell-based
[6] = Resistance index, ratio of IC50 for human K562/ADR cells to IC50 for human K562 cells; type: functional
Calu-1 = assay: Antiproliferative activity against human Calu-1 cells incubated for 24 hrs by MTT assay; type: functional, cell-based; conditions: Calu-1, 24 h
HeLa [7] = assay: Antiproliferative activity against human HeLa cells incubated for 24 hrs by MTT assay; type: functional, cell-based
A549 [8] = assay: Antiproliferative activity against human A549 cells incubated for 24 hrs by MTT assay; type: functional, cell-based; conditions: A549, 24 h

COc1cc([C@@H]2c3cc4c(cc3[C@@H](NC(=S)NC(=O)c3ccc(Cl)cc3)[C@H]3COC(=O)[C@H]23)OCO4)cc(OC)c1OC
pIC50 (A549 [1]): 7.00 | pIC50 (HepG2 [2]): 7.00 | pIC50 (HCT-116): 7.00

COc1cc([C@@H]2c3cc4c(cc3[C@@H](NC(=S)NC(=O)c3ccc(F)cc3)[C@H]3COC(=O)[C@H]23)OCO4)cc(OC)c1OC
pIC50 (A549 [1]): 7.00 | pIC50 (HepG2 [2]): 7.00 | pIC50 (HCT-116): 7.00

COc1cc([C@@H]2c3cc4c(cc3[C@@H](NC(=S)NC(=O)c3ccccc3Br)[C@H]3COC(=O)[C@H]23)OCO4)cc(OC)c1OC
pIC50 (A549 [1]): 7.00 | pIC50 (HepG2 [2]): 7.00 | pIC50 (HCT-116): 7.00

COc1cc([C@@H]2c3cc4c(cc3[C@@H](NC(=S)NC(=O)c3cccc5ccccc35)[C@H]3COC(=O)[C@H]23)OCO4)cc(OC)c1OC
pIC50 (A549 [1]): 7.00 | pIC50 (HepG2 [2]): 7.00 | pIC50 (HCT-116): 7.00

CCC[C@H]1O[C@H](O[C@@H]2c3cc4c(cc3[C@@H](c3cc(OC)c(O)c(OC)c3)[C@H]3C(=O)OC[C@@H]32)OCO4)CC[C@H]1O
pIC50 (HepG2 [3]): 7.38 | pIC50 (A549 [4]): 7.38 | pIC50 (HeLa [5]): 7.38 | pIC50 (MCF7): 7.38

COc1cc([C@@H]2c3cc4c(cc3[C@H](OC(=O)/C=C/c3ccc(F)cc3)[C@H]3COC(=O)[C@H]23)OCO4)cc(OC)c1OC
pIC50 (K562): 7.96 | pIC50 (K562/Adr): 7.96 | Ratio IC50 [6]: 1.1

COc1ccc(C2SCCC(CCCCC(=O)O[C@H]3c4cc5c(cc4[C@@H](c4cc(OC)c(OC)c(OC)c4)[C@H]4C(=O)OC[C@@H]43)OCO5)S2)cc1O (stereo partly drawn)
pIC50 (Calu-1): 5.57 | pIC50 (HeLa [7]): 5.57 | pIC50 (A549 [8]): 5.57

COc1ccc(C2SCCC(CCCCC(=O)O[C@H]3c4cc5c(cc4[C@@H](c4cc(OC)c(OC)c(OC)c4)[C@H]4C(=O)OC[C@@H]43)OCO5)S2)cc1OC (stereo partly drawn)
pIC50 (Calu-1): 5.57 | pIC50 (HeLa [7]): 5.57 | pIC50 (A549 [8]): 5.57

CCC[C@@H]1O[C@H](O[C@H]2c3cc4c(cc3[C@@H](c3cc(OC)c(OC)c(OC)c3)[C@H]3C(=O)OC[C@@H]32)OCO4)CC[C@H]1O
pIC50 (HepG2 [3]): 7.38 | pIC50 (A549 [4]): 7.38 | pIC50 (HeLa [5]): 7.38 | pIC50 (MCF7): 7.38

COc1cc([C@@H]2c3cc4c(cc3[C@H](OC(=O)/C=C/c3ccc(C)cc3)[C@H]3COC(=O)[C@H]23)OCO4)cc(OC)c1OC
pIC50 (K562): 7.96 | pIC50 (K562/Adr): 7.96 | Ratio IC50 [6]: 1.1

COc1cc([C@@H]2c3cc4c(cc3[C@H](OC(=O)CCCCC3CCSC(c5ccc(Cl)cc5)S3)[C@H]3COC(=O)[C@H]23)OCO4)cc(OC)c1OC (stereo partly drawn)
pIC50 (Calu-1): 5.57 | pIC50 (HeLa [7]): 5.57 | pIC50 (A549 [8]): 5.57

CC[C@H]1O[C@@H](O[C@@H]2c3cc4c(cc3[C@@H](c3cc(OC)c(O)c(OC)c3)[C@H]3C(=O)OC[C@@H]32)OCO4)CC[C@H]1O
pIC50 (HepG2 [3]): 7.38 | pIC50 (A549 [4]): 7.38 | pIC50 (HeLa [5]): 7.38 | pIC50 (MCF7): 7.38

COc1cc([C@@H]2c3cc4c(cc3[C@@H](O[C@H]3CC[C@@H](O)[C@@H](C(C)C)O3)[C@H]3COC(=O)[C@H]23)OCO4)cc(OC)c1O
pIC50 (HepG2 [3]): 7.38 | pIC50 (A549 [4]): 7.38 | pIC50 (HeLa [5]): 7.38 | pIC50 (MCF7): 7.38

COc1cc([C@@H]2c3cc4c(cc3[C@H](OC(=O)CCCCC3CCSC(c5ccccc5)S3)[C@H]3COC(=O)[C@H]23)OCO4)cc(OC)c1OC (stereo partly drawn)
pIC50 (Calu-1): 5.57 | pIC50 (HeLa [7]): 5.57 | pIC50 (A549 [8]): 5.57

COc1cc([C@@H]2c3cc4c(cc3[C@@H](NC(=S)NC(=O)c3cccc(C)c3)[C@H]3COC(=O)[C@H]23)OCO4)cc(OC)c1OC
pIC50 (A549 [1]): 7.00 | pIC50 (HepG2 [2]): 7.00 | pIC50 (HCT-116): 7.00

COc1cc([C@@H]2c3cc4c(cc3[C@@H](NC(=S)NC(=O)c3cccc(Cl)c3)[C@H]3COC(=O)[C@H]23)OCO4)cc(OC)c1OC
pIC50 (A549 [1]): 7.00 | pIC50 (HepG2 [2]): 7.00 | pIC50 (HCT-116): 7.00

COc1cc([C@@H]2c3cc4c(cc3[C@@H](NC(=S)NC(=O)c3ccccc3C)[C@H]3COC(=O)[C@H]23)OCO4)cc(OC)c1OC
pIC50 (A549 [1]): 7.00 | pIC50 (HepG2 [2]): 7.00 | pIC50 (HCT-116): 7.00

COc1cc([C@@H]2c3cc4c(cc3[C@@H](O[C@@H]3CC[C@@H](O)[C@@H](C)O3)[C@H]3COC(=O)[C@H]23)OCO4)cc(OC)c1O
pIC50 (HepG2 [3]): 7.38 | pIC50 (A549 [4]): 7.38 | pIC50 (HeLa [5]): 7.38 | pIC50 (MCF7): 7.38

COc1cc([C@@H]2c3cc4c(cc3[C@H](O[C@H]3CC[C@@H](O)[C@H](C(C)C)O3)[C@H]3COC(=O)[C@H]23)OCO4)cc(OC)c1OC
pIC50 (HepG2 [3]): 7.38 | pIC50 (A549 [4]): 7.38 | pIC50 (HeLa [5]): 7.38 | pIC50 (MCF7): 7.38

Source: ChEMBL document CHEMBL4818987, “Recent advances of podophyllotoxin/epipodophyllotoxin hybrids in anticancer activity, mode of action, and structure-activity relationship: An update (2010-2020)” (Eur J Med Chem, 2020)
